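Interpolation was linear, between the two tested concentrations surrounding the appropriate level; five concentrations were tested over 48 hours in 96-well plates. Abbreviation: GI50, concentration required for 50% inhibition of growth.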 Calls of active or inactive are those of the source. No stated cut-off is given here; in the data, active = GI50 up to about 1.1 µM and inactive = higher. Non-standard residues stand in square brackets, D forms with d. Residues, ends and D or L forms follow the SMILES beside them. *: point of attachment. NMeF = CN[CH](Cc1ccccc1)C(=O)O; NMeV = CN[CH](C(=O)O)C(C)C; Boc = CC(C)(C)OC(=O)*
What was measured:
Experiment in all cases: NCI tumour cell line growth inhibition, 48 h
EKVX = tested on: EKVX
HOP-62 = tested on: HOP-62
DMS-114 = tested on: DMS-114
NCI-H460 = tested on: NCI-H460
NCI-H522 = tested on: NCI-H522
DMS-273 = tested on: DMS-273
U-251 = tested on: U-251
KM12 = tested on: KM12
XF498 = tested on: XF498
A549 = tested on: A549
LXFL 529 = tested on: LXFL 529
HCC 2998 = tested on: HCC 2998
M14 = tested on: M14
CAKI-1 = tested on: CAKI-1
NCI-H23 = tested on: NCI-H23
M19-MEL = tested on: M19-MEL

Measured: GI50

O=C1c2ccccc2C(=O)c2[nH]c(Cc3ccccc3F)nc21
inactive: EKVX > 100 µM | HOP-62 86.7 µM | DMS-114 33.7 µM | NCI-H460 33.9 µM | NCI-H522 21.3 µM | DMS-273 34.6 µM | U-251 7.96 µM | KM12 38.9 µM | XF498 53.1 µM | A549 52.7 µM | LXFL 529 31.9 µM | HCC 2998 > 100 µM | M14 84.1 µM | CAKI-1 86.7 µM | NCI-H23 27.7 µM

COc1ccc2ccccc2c1C1=NC(C)(C)CO1
inactive: EKVX > 100 µM | HOP-62 > 100 µM | M19-MEL > 100 µM | NCI-H460 > 100 µM | NCI-H522 > 100 µM | U-251 > 100 µM | KM12 > 100 µM | XF498 > 100 µM | A549 > 100 µM | LXFL 529 > 100 µM | M14 > 100 µM | CAKI-1 > 100 µM | NCI-H23 > 100 µM

Cc1ccc(-c2nc3ccccc3c(=O)n2NC2OC(CO)C(O)C(O)C2O)cc1 (centres undefined)
inactive: EKVX > 100 µM | HOP-62 > 100 µM | M19-MEL > 100 µM | DMS-114 > 100 µM | NCI-H460 > 100 µM | NCI-H522 > 100 µM | DMS-273 > 100 µM | U-251 > 100 µM | KM12 > 100 µM | XF498 > 100 µM | A549 > 100 µM | LXFL 529 > 100 µM | HCC 2998 > 100 µM | M14 > 100 µM | CAKI-1 39.6 µM | NCI-H23 > 100 µM

[N-]=[N+]=Nc1c(Br)c(=O)[nH]c(=O)n1COCCO
inactive: HOP-62 > 100 µM | M19-MEL > 100 µM | DMS-114 > 100 µM | NCI-H460 > 100 µM | NCI-H522 32.2 µM | DMS-273 > 100 µM | U-251 > 100 µM | KM12 > 100 µM | XF498 > 100 µM | A549 > 100 µM | LXFL 529 > 100 µM | HCC 2998 > 100 µM | M14 > 100 µM | CAKI-1 > 100 µM | NCI-H23 > 100 µM

Nc1nc(=O)[nH]c2c1cnn2COCCO
inactive: EKVX > 100 µM | DMS-114 > 100 µM | NCI-H460 > 100 µM | DMS-273 > 100 µM | U-251 22.4 µM | KM12 > 100 µM | XF498 > 100 µM | A549 > 100 µM | LXFL 529 > 100 µM | M14 > 100 µM | CAKI-1 > 100 µM | NCI-H23 17.3 µM

NC(CCC(=O)NC(CSSCCCCS(=O)O)C(=O)NCC(=O)O)C(=O)O (centres undefined)
inactive: EKVX > 100 µM | HOP-62 > 100 µM | M19-MEL > 100 µM | DMS-114 > 100 µM | NCI-H460 > 100 µM | NCI-H522 > 100 µM | DMS-273 > 100 µM | U-251 > 100 µM | KM12 > 100 µM | XF498 > 100 µM | A549 > 100 µM | LXFL 529 > 100 µM | HCC 2998 > 100 µM | M14 > 100 µM | CAKI-1 > 100 µM | NCI-H23 > 100 µM

COc1ccc(C2C(Cl)C(=O)N2NC(=O)c2ccccc2O)cc1OC (centres undefined)
inactive: M19-MEL > 100 µM | DMS-114 41.1 µM | NCI-H460 49.5 µM | NCI-H522 32.2 µM | DMS-273 > 100 µM | U-251 92.3 µM | KM12 92.3 µM | XF498 15.5 µM | A549 > 100 µM | LXFL 529 > 10 µM | M14 > 100 µM | NCI-H23 > 100 µM

CC1=NN(C(=O)c2ccc(Cl)cc2)C(=O)/C1=C/c1ccccc1O
inactive: EKVX > 100 µM | HOP-62 > 100 µM | M19-MEL > 100 µM | DMS-114 > 100 µM | NCI-H460 > 100 µM | NCI-H522 > 100 µM | U-251 > 100 µM | KM12 > 100 µM | XF498 > 100 µM | A549 > 100 µM | LXFL 529 > 100 µM | HCC 2998 > 100 µM | M14 > 100 µM | CAKI-1 > 100 µM | NCI-H23 > 100 µM

CC(C)C(NC(=O)OC(C)(C)C)C(=O)N(C)C(Cc1ccccc1)C(=O)N(C)C(C(=O)N(C)C(C(=O)O)C(C)C)C(C)C (centres undefined) (Boc-V[NMeF][NMeV][NMeV]-OH; configuration not given here)
inactive: EKVX > 100 µM | HOP-62 > 100 µM | M19-MEL > 100 µM | DMS-114 > 100 µM | NCI-H460 > 100 µM | NCI-H522 > 100 µM | DMS-273 > 100 µM | U-251 > 100 µM | KM12 > 100 µM | XF498 > 100 µM | A549 > 100 µM | LXFL 529 > 100 µM | HCC 2998 > 100 µM | M14 > 100 µM | NCI-H23 > 100 µM
